Data taken from the NIST ThermoML archive (doi:10.1016/j.jct.2005.03.007).
Numbers after ± are expanded uncertainties.

Experiment: Solid-liquid equilibrium temperature
Conditions: Crystal

c1ccccc1 [benzene]
pressure-volume curve discontinuity
Conditions | Solid-liquid equilibrium temperature [K]
53620 kPa | 293.15 ± 0.65
92220 kPa | 303.15 ± 0.99
133290 kPa | 313.15 ± 1.3
176820 kPa | 323.15 ± 1.6
222810 kPa | 333.15 ± 1.9
271270 kPa | 343.15 ± 2.2
322200 kPa | 353.15 ± 2.6

CCCCCCCCCCCCCCCCCC [octadecane]
pressure-volume curve discontinuities
Conditions | Solid-liquid equilibrium temperature [K]
8860 kPa | 303.15 ± 0.3
49600 kPa | 313.15 ± 0.57
94900 kPa | 323.15 ± 0.88
144780 kPa | 333.15 ± 1.2
199220 kPa | 343.15 ± 1.5
258230 kPa | 353.15 ± 1.8

CCCCCCCCCCCCCCCC [hexadecane]
pressure-volume curve discontinuity
Conditions | Solid-liquid equilibrium temperature [K]
9210 kPa | 293.15 ± 0.3
50650 kPa | 303.15 ± 0.58
95560 kPa | 313.15 ± 0.9
143920 kPa | 323.15 ± 1.2
195740 kPa | 333.15 ± 1.5
251030 kPa | 343.15 ± 1.9
